# Entries after “also recorded” stand apart in the source; their conditions may differ.
# Experiments:
# human estrogen receptor [1] = target: T1, human estrogen receptor (Homo sapiens, UniProt P03372); experiment: ER transcriptional activity on MMTV-ERE-LUC, CV-1 cells, ER alone; assay type: cell-based; conditions: 10^-7 M 17-β-estradiol, FIG. 11B
# T1 construct: expressed in transfected cells; host or cells: CV-1
# T1 sequence (P03372 1-595): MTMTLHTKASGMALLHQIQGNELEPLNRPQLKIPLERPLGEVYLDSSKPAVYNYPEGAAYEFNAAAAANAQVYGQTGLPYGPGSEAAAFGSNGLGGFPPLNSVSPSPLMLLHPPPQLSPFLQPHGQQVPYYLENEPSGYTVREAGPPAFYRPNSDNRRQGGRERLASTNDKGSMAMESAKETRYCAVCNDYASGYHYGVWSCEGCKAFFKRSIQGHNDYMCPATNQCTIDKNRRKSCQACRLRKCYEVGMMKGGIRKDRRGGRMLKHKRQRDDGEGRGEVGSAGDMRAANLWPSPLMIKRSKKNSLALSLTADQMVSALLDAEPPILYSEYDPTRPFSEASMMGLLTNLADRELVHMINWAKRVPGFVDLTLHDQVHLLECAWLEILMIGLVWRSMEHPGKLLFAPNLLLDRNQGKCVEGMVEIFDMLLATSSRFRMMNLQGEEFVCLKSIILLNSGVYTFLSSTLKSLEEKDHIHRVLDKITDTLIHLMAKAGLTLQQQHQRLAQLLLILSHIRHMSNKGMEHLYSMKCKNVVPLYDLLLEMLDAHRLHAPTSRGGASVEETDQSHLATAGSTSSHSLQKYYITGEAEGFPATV
# Protocol: (§1) All values were normalized for transfection efficiency by simultaneous estimation of luciferase and β-galactocidase activities. The relative luciferase activity is calculated by dividing the normalized luciferase value at a given point by that obtained in the absence of transfected receptor or ligand. Data shown represent the mean +/- the average deviation from the mean of triplicate estimations.
# (§2) Experimental protocols and data calculation are as described in FIG. 11. The experiment detailed above is representative of independent assays (N>3). Data shown represent the mean +/- the average deviation from the mean of triplicate estimations.
# (§3) Vegeto et al., supra. Cells were plated into 96-well tissue culture plates. The vector DNA was introduced into the CV-1 cells using calcium phosphate coprecipitation as described herein. More specifically, 20 μg of DNA/ml of transfection buffer were used in each transfection. […] The concentration of pXVhPR-A vector chosen was determined by performing the experiment at several different concentrations of vector, and then using that concentration that was optimal for transcriptional readout. […] The Normalized LUC activity was calculated by dividing the raw luciferase (×10^4) units for each point by the β-galactosidase activity [(OD415 nm ×10^5)/time min.] at that point.
# human estrogen receptor [2] = experiment: ER transcriptional activity on MMTV-ERE-LUC, CV-1 cells, ER co-expressed with PR-A; assay type: cell-based
# Protocol: as §1, §2
# Vegeto et al., supra. Cells were plated into 96-well tissue culture plates. The vector DNA was introduced into the CV-1 cells using calcium phosphate coprecipitation as described herein. More specifically, 20 μg of DNA/ml of transfection buffer were used in each transfection. Each transfection mix included 0.5 μg of pRST7hER, 9.5 μg of MMTV-ERE-LUC, 5 μg of pCH110, (which contains the gene for β-galactosidase) as an internal control and 5 μg of PGEM4 DNA as a carrier. Depending on the experiment, 0.1 μg pSVhPR-A or pSVhPR-B and an amount of pSVXV2neo (Dr. Bert O'Malley, Baylor College of Medicine) to bring the total amount of DNA to 20 μg was added. The concentration of pXVhPR-A vector chosen was determined by performing the experiment at several different concentrations of vector, and then using that concentration that was optimal for transcriptional readout. The concentration of pSVhPR-B vector was chosen based upon the amount required to give an identical amount of immunoreactive PR-A and PR-B. After transfections using a Biomek 1000 automated laboratory workstation, the cells were incubated with the precipitate for 6 hours. Cells were washed with PBS and incubated for 40 hours with or without hormones as indicated. Cell extracts were prepared as previously described herein and assayed for luciferase (LUC) and β-galactosidase activities. The Normalized LUC activity was calculated by dividing the raw luciferase (×10^4) units for each point by the β-galactosidase activity [(OD415 nm ×10^5)/time min.] at that point.
# human estrogen receptor [3] = target: T1, human estrogen receptor; experiment: ER transcriptional activity on MMTV-ERE-LUC, CV-1 cells, ER co-expressed with PR-B; assay type: cell-based; conditions: FIG. 11B
# Protocol: as §1
# as §3, with “transfection. Each transfection mix included 0.5 μg of pRST7hER, 9.5 μg of MMTV-ERE-LUC, 5 μg of pCH110, (which contains the gene for β-galactosidase) as an internal control and 5 μg of PGEM4 DNA as a carrier.” for “transfection.”
# [4] = system: glucocorticoid receptor (GR); experiment: GR transcriptional activity on MMTV-LUC, CV-1 cells, GR co-expressed with PR-A; assay type: cell-based
# Protocol: (§4) Cells were seeded in 12-well, 96-well or 10 cm tissue culture plates. […] 20 μg of DNA/ml of transfection buffer were used in each transfection reaction. In this mix, the concentration of the luciferase plasmids and that of the internal control plasmid pCH110 (Pharmacia, Inc.), which contains the gene for the β-galactosidase enzyme, remained constant ([…] of each plasmid DNA), while the receptor plasmid concentration varied as indicated for each experiment. Different amounts of receptor parental plasmid, pSV2-neo (Dr. Bert O'Malley, Baylor College of Medicine, Houston, Tex.) was included to keep constant the total amount of the SV40 enhancer vectors. pGEM4 plasmid DNA (Promega Biotech, Madison, Wis.) was added to balance the total DNA concentration to 20 g/reaction. For the 96-well plate experiments, transfections were performed on a Biomek 1000 Automated Laboratory Workstation (Beckman Instruments, Fullerton, Calif.).
# (§5) Cells were seeded 24 hours prior to transfection in the fiat-bottom tissue culture plates ([…]) in phenol red-free DMEM containing 10% FCS. […] Using calcium phosphate co-precipitation, DNA solution was added dropwise with vortexing into an equal volume of 2X HBS pH 6.9 (280 mM NaCl. 50 mM HEPES, 1.5 mM Na2 HPO4) and precipitates were allowed to form for 20 minutes. Cells were transfected ( […] of DNA mix/well) for 6 hours and then washed with phosphate-bufferedsaline (PBS) to remove the precipitate. Cells were incubated for an additional 24 hours in phenol red-free medium containing 10% charcoal-treated FCS, with or without hormones as indicated in the text. Cell extracts were prepared as described by Berger et al., Supra, and assayed for luciferase and β-galactosidase activities. All determinations were performed in triplicates in at least two independent experiments, and were normalized for transfection efficiency by using β-galactosidase as an internal control.
# human androgen receptor [5] = target: T2, human androgen receptor (Homo sapiens, UniProt P10275); experiment: AR transcriptional activity on MMTV-LUC, CV-1 cells, AR alone; assay type: cell-based; conditions: FIG. 10
# T2 sequence (P10275 1-920): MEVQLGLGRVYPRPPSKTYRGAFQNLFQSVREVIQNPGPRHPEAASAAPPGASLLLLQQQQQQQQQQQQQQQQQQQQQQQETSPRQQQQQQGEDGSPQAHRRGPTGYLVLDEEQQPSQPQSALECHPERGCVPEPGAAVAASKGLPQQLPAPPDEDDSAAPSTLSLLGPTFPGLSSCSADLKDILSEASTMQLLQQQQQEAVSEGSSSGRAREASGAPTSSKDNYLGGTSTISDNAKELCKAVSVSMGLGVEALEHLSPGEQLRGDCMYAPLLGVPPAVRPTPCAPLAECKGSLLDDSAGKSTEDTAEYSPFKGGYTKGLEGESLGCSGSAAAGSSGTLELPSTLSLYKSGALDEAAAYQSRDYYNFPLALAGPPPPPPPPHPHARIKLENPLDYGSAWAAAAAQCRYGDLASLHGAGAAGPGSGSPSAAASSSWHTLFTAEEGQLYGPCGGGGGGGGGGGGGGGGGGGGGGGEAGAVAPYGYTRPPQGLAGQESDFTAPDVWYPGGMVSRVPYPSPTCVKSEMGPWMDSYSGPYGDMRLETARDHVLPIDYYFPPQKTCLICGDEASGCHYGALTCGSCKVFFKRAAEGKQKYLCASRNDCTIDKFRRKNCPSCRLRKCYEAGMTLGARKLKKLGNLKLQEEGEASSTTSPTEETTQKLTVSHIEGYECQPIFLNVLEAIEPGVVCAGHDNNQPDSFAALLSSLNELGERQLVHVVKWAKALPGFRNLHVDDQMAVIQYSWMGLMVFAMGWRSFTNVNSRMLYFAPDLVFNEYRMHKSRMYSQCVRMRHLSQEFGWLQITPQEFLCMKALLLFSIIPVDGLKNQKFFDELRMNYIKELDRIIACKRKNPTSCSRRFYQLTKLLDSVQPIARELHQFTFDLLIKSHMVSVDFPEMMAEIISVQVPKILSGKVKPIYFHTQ
# Protocol: (§6) FIGS. 10A-10B are a series of graphs showing CV-1 cells that were transiently transfected with an expression vector for the human androgen receptor (pRShAR) alone, or in combination with phPR-A together with 5 µg/ml of the MMTV-LUC reporter and 5 µg/ml of pCH110 as an internal control. […] The relative luciferase activity is calculated by dividing the normalized luciferase value at a given point by that obtained in the absence of transfected receptor or ligand. […] The data are presented as percent (%) activation, where 100% represents the maximal induction achieved by human androgen receptor at 10^ -8 M DHT. The experimental data represents mean values +/- the average deviation from the mean of quadruplicate estimations;
# (§7) Cells were seeded in 12-well, 96-well or 10 cm tissue culture plates. […] 20 μg of DNA/ml of transfection buffer were used in each transfection reaction. In this mix, the concentration of the luciferase plasmids and that of the internal control plasmid pCH110 (Pharmacia, Inc.), which contains the gene for the β-galactosidase enzyme, remained constant ([…] of each plasmid DNA), while the receptor plasmid concentration varied as indicated for each experiment. […]
# human androgen receptor [6] = target: T2, human androgen receptor; experiment: AR transcriptional activity on MMTV-LUC, CV-1 cells, AR co-expressed with PR-A; assay type: cell-based; conditions: AR plus PR-A, FIG. 10B
# Protocol: as §6, §7
# ER = ER transcriptional activity on MMTV-ERE-LUC in HepG2 and HS578T cells; assay type: cell-based; conditions: data not shown
# AR = conditions: stated without data; cited from earlier work
# PR = conditions: cited from earlier work
# [7] = target: T3, glucocorticoid receptor (GR) (Homo sapiens, UniProt P04150)
# T3 sequence (P04150 1-777): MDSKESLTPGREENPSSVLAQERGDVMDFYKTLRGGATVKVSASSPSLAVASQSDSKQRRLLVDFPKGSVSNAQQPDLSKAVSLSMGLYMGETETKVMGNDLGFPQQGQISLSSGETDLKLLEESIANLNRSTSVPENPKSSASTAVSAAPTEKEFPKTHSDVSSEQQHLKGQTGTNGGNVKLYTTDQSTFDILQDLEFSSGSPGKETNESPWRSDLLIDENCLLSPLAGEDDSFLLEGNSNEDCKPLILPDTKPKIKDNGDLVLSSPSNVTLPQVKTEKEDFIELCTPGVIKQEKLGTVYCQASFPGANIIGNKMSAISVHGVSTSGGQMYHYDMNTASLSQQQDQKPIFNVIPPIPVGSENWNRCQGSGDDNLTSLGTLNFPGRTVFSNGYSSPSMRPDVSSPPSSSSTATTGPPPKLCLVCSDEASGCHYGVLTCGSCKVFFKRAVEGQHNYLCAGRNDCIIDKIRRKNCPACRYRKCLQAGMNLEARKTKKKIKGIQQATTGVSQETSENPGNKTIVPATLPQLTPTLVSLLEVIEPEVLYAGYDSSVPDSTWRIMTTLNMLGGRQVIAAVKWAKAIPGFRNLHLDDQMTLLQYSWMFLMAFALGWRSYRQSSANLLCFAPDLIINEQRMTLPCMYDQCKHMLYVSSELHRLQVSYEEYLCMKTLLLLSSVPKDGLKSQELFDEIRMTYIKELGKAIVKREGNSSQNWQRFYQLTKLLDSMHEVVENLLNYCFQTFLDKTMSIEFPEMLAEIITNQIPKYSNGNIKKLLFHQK
# Protocol: as §4, §5
structure (smiles),measurement,setting,value
"CCCCN(C)C(=O)CCCCCCCCCC[C@@H]1Cc2cc(O)ccc2[C@H]2CC[C@]3(C)[C@@H](O)CC[C@H]3[C@H]12 [ICI-164,384]",inhibition of 17-β-estradiol induced ER transcriptional activation,human estrogen receptor [1],"can be inhibited by addition of the pure anti-estrogen ICI-164,384"
same,"effect of hPR-A co-expression on activity of ICI-164,384",human estrogen receptor [2]; FIG. 11B,did not affect the activity
same,"effect of hPR-B co-expression on activity of ICI-164,384",human estrogen receptor [3],did not affect the activity
CN(C)c1ccc([C@H]2C[C@]3(C)[C@@H](CC[C@]3(O)CCCO)[C@@H]3CCC4=CC(=O)CCC4=C32)cc1 [ZK98299],inhibition of GR function via PR-A,"[4]; MMTV promoter, dexamethasone present, FIG. 8A",mediated an inhibition of GR function; also recorded: promotes PR-A repressor function
same,effect on DHT-induced AR activity,human androgen receptor [5],minimal direct effects on AR transcriptional activity
same,effect on DHT-induced AR activity in the presence of PR-A,human androgen receptor [6],addition of PR-A to the cells increased this compound's sensitivity
same,IC50,"human estrogen receptor [2]; 10^-7 M 17-β-estradiol, read-out: half maximal inhibition (IC50) of ER in the presence of hPR-A",3 nM
same,"efficacy compared to the pure anti-estrogen ICI-164,384","human estrogen receptor [2]; PR-A co-expressed, 100% = 10^-7 M 17-β-estradiol + 10^-6 M ICI-164,384, FIG. 12",70%
same,anti-estrogenic activity,ER; HS578T cells,both anti-progestins functioned as anti-estrogens
same,anti-estrogenic activity,ER; HepG2 cells,neither anti-progestin exhibited any anti-estrogenic activity
same,affinity for AR,AR,low affinity for AR
same,effect on PR DNA binding,PR,retards DNA binding; also recorded: interferes with DNA binding
C[C@@H]1C[C@H]2[C@@H]3CCC4=CC(=O)C=C[C@]4(C)[C@@]3(F)[C@@H](O)C[C@]2(C)[C@@]1(O)C(=O)CO [dexamethasone],maximally activated GR (100% value),[7],> 450 normalized response
same,maximal activity of GR (100% value),"[7]; cv-1 cells, 0.01 µM",> 450 fold normalized response
same,induction of MMTV promoter activity,"[7]; cv-1 cells, 24 h, 0.1 µM",450 fold
same,"dexamethasone induction of GR activity, of control levels",[4],about 53%
"CC(=O)O[C@]1(C(C)=O)CC[C@H]2[C@@H]3C[C@H](C)C4=CC(=O)CC[C@]4(C)[C@H]3CC[C@@]21C [medroxyprogesterone acetate, Medroxyprogesterone acetate]",anti-estrogen activity of PR agonists,"human estrogen receptor [2]; PR-A co-expressed, 10^-7 M 17-β-estradiol, FIG. 13",considerably less effective
